Reference: patent publication US4287186A, “Antibiotics, a process for their preparation and their use as plant protection agents” (Bayer Aktiengesellschaft, priority 1979, dated 1981)

Assays:
[1] = tested on: Megoura viciae (vetch aphid); details: in vivo
Procedure: The tests with Megoura viciae were carried out on potted field bean plants (Vicia faba, variety "Saxa") under laboratory conditions. The test animals were transferred to the test plants only after the plants had been treated and the spray coating had dried on. The tests were as a rule evaluated 5 days after the start of the test, calculated from the time at which the test animals were introduced.

[2] = type: physicochemical
Source text: (e) Thin layer chromatography: Three ninhydrin-positive spots, of which, in each case, only one spot corresponds to the substances which is active in the bioautogram, are found in all the solvent systems used which contain acetic acid. This fact could be ascribed to the lability of the antibiotic in acetic acid solution. In neutral solvent systems, only one ninhydrin-positive spot is found in each case.

## Nikkomycin
[1]
  mortality of the larvae which had developed normally during the ecdysis stages: more than 90%
[2]
  stability in acetic acid solution: lability
